Columns and labels:
[1] = molecular target: T1, COX-2 (Mus musculus, UniProt Q05769); test: Evaluation of COX-2's inhibition efficacy (PGE2 radioimmuno assay, LPS-induced, aspirin-pretreated peritoneal macrophages); format: cell-based, C57BL/6 mouse; conditions: for inhibition at 1 µg/mL: 1 μg/ml; for inhibition at 10 µg/mL: 10 μg/ml; for inhibition at 0.1 µg/mL: 0.1 μg/ml
T1 construct: endogenous in cells; host or cells: peritoneal macrophages of C57BL/6 mouse, aspirin-pretreated, LPS-induced
T1 sequence (Q05769 18-604): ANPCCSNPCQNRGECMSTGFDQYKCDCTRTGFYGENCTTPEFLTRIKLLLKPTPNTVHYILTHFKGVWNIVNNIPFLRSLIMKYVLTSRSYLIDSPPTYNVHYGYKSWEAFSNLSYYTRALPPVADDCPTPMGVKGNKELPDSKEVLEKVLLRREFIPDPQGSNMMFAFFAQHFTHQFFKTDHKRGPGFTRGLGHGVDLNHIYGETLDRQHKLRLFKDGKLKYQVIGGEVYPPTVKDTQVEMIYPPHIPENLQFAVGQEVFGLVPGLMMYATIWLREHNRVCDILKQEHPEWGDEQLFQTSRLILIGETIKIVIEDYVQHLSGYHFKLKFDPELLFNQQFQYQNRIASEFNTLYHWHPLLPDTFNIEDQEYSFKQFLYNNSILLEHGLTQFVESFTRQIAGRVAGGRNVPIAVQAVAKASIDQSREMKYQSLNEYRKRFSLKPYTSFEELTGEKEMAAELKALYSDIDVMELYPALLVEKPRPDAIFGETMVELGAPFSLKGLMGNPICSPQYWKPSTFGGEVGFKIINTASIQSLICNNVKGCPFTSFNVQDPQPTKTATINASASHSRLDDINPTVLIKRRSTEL
In short: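 C57BL/6 mouse peritoneal macrophages, adhered 2 h at 37 °C, were LPS-stimulated to induce COX-2. Cells were then treated 10 min with compound, followed by 10 min with 10 μM arachidonic acid (final). PGE2 in the supernatant was quantified by radioimmunoassay.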

[2] = molecular target: T2, COX-1 (Mus musculus, UniProt P22437); test: Evaluation of COX-1's inhibition efficacy (macrophages without aspirin and LPS pre-treatment); format: cell-based, C57BL/6 mouse; conditions: 10 μg/ml
T2 construct: there is no pre-treatment of aspirin and LPS in the adhesion of macrophage; endogenous in cells; host or cells: peritoneal macrophages of C57BL/6 mouse, without aspirin and LPS pre-treatment
T2 sequence (P22437 27-602): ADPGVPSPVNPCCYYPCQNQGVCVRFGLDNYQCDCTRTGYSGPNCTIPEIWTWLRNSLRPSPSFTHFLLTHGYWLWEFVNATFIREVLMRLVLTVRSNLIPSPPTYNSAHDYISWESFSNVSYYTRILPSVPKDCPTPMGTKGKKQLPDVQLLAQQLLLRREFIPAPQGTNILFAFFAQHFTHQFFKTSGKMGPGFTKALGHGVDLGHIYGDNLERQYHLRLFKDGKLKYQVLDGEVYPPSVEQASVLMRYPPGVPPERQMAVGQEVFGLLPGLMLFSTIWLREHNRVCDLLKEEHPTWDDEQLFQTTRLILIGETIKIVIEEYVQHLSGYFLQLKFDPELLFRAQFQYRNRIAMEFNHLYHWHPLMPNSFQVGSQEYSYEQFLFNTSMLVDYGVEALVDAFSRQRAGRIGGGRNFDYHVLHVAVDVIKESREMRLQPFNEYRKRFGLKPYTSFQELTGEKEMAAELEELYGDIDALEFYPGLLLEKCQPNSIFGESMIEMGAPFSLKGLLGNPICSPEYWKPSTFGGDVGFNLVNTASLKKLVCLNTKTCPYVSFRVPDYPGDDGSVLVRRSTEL
In short: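 C57BL/6 mouse peritoneal macrophages (1×10^6 cells/mL) were adhered for 2 h at 37° C without aspirin or LPS pretreatment. Compound was given for 10 min at 37° C, then arachidonic acid (10 μM final) for 10 min. Supernatant PGE2 was measured by radioimmunoassay, with 100% activity set as PGE2 with versus without arachidonic acid.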

[3] = tested on: edema in mouse's foot induced by carrageenan; test: Depressant action on edema in mouse's foot induced by carrageenan; format: in vivo, Male Sprague-Dawley rat; conditions: po; for inhibition in vivo at 30 mg/kg: 30 mg/kg p.o.; for inhibition in vivo at 50 mg/kg: 50 mg/kg p.o.
Method: (§1) Regarding the compounds in some of the above Examples and indomethacin, depressant action on edema in mouse's ear and depressant action on edema in mouse's foot being induced by carrageenan are being measured by the following 2 methods. And the results of the depressant action on edema in mouse's ear and depressant action on edema in mouse's foot being induced by carrageenan are shown in Table 5.
2. Measurement of Depressant Action on Edama in Mouse's Foot Induced by Carrageenan
At 1 hour after oral administering to Male-Sprague-Dawley-white mouse, weighing 150˜200 g, with a suspended solution of appropriate amount of sample in 0.5% of carboxymethyl cellulose and 0.2% of TWEN solution, edema on the right foot of mouse was induced by injecting 0.1 ml(1%) of carrageenan-saline solution. Right after the inducement of edema by carrageenan and 3 hours later, the edema rate was estimated by measuring white mouse's foot volume with Displacement Plethysmometer(Ugo Basile, Italy). Carrageenan injection Drug was administered 1 hour before the carrageenan injection. Depressant rate of edema is produced by the following equation 1.
% Depressant rate of edema=(1 ? Vtreated group/ ? Vcontrol group)×100 ? V: change of foot volume [Equation 1]

[4] = tested on: edema in mouse's ear; test: Depressant action on edema in mouse's ear (TPA-induced, myeloperoxidase); format: in vivo, ICR mouse; conditions: topical on ear, TPA 25 μg, 5 hours
Method: as §1
1. Measurement of Depressant Action on Edama in Mouse's Ear
At 30 minutes after coating the left ear of ICR mouse, weighing 20 g, with a solution of appropriate amount of sample in 20 μl of mixed solvent DMSO:acetone(1:9), 25 μg of TPA(tetradecanoylphorbol acetate) was coated on both ears. The determination of depressant action on edama was made in 5 hours later by the number of neutral granulocyte gathering in the ear after inducing TPA inflammation. The number of neutral granulocyte was estimated by measuring the activation of myeloperoxidase.

[5] = 3 h, read-out: depressant rate of edema rate induced by carrageenan (oral administration), % depression

SMILES	inhibition at 1 µg/mL [1]	inhibition at 10 µg/mL [1]	inhibition at 10 µg/mL [2]	inhibition at 0.1 µg/mL [1]	melting point	inhibition in vivo at 3 mg/kg ([3]; 3 h, 3 mg/kg p.o., read-out: depressant rate of edema rate induced by carrageenan (oral administration), % depression)	inhibition in vivo at 30 mg/kg [3, 5]	depressant rate of ear edema, ED50 [4]	inhibition in vivo at 50 mg/kg [3, 5]	ED50 ([3]; 3 hours after carrageenan, read-out: depressant rate of edema rate induced by carrageenan (oral administration), ED50)
Cc1ccc(-c2c(-c3ccc(S(C)(=O)=O)cc3)oc3ccccc3c2=O)cc1 [Example 3, 3-(4-Methylphenyl)-2-(4-(methylsulfonyl)phenyl)-4H-1-benzopyran-4-one]	61%	72%	–	13%	225 °C	–	–	1.2 mg/ear, ED50	52%	–
CS(=O)(=O)c1ccc(-c2oc3ccccc3c(=O)c2-c2ccccc2F)cc1 [Example 12, 3-(2-Fluorophenyl)-2-(4-(methylsulfonyl)phenyl)-4H-1-benzopyran-4-one]	–	–	–	–	–	–	20%	0.4 mg/ear, ED50	–	–
COc1ccc2c(c1)c(CC(=O)O)c(C)n2C(=O)c1ccc(Cl)cc1 [indomethacine, reference compound]	–	–	–	–	–	–	–	0.4 mg/ear, ED50	–	4.3 mg/kg
CS(=O)(=O)c1ccc(-c2oc3ccccc3c(=O)c2-c2ccc(F)cc2)cc1 [Example 1, 3-(4-Fluorophenyl)-2-(4-(methylsulfonyl)phenyl)-4H-1-benzo-pyran-4-one]	100%	–	< 5%	94%	–	–	–	0.4 mg/ear, ED50	43%	–
COc1ccc(-c2c(-c3ccc(S(C)(=O)=O)cc3)oc3ccccc3c2=O)cc1 [Example 10, 3-(4-Methoxyphenyl)-2-(4-(methylsulfonyl)phenyl)-4H-1-benzopyran-4-one]	67%	86%	< 5%	14%	212 to 213 °C	–	–	0.6 mg/ear, ED50	–	–
CS(=O)(=O)c1ccc(-c2oc3ccccc3c(=O)c2-c2ccc(Br)cc2)cc1 [Example 28, 3-(4-Bromophenyl)-2-(4-(methylsulfonyl)phenyl)-4H-1-benzopyran-4-one]	–	–	–	–	–	–	–	0.8 mg/ear, ED50	–	–
CS(=O)(=O)c1ccc(-c2oc3ccccc3c(=O)c2-c2ccc(F)c(Cl)c2)cc1 [Example 26, 3-(3-Chloro-4-fluorophenyl)-2-(4-(methylsulfonyl)phenyl)-4H-1-benzopyran-4-one]	–	–	–	–	–	–	–	0.6 mg/ear, ED50	23%	–

The next lines start with results.

inhibition at 1 µg/mL [1]	inhibition at 10 µg/mL [1]	inhibition at 10 µg/mL [2]	inhibition at 0.1 µg/mL [1]	melting point	SMILES	inhibition in vivo at 3 mg/kg ([3]; 3 h, 3 mg/kg p.o., read-out: depressant rate of edema rate induced by carrageenan (oral administration), % depression)	inhibition in vivo at 30 mg/kg [3, 5]	depressant rate of ear edema, ED50 [4]	inhibition in vivo at 50 mg/kg [3, 5]	ED50 ([3]; 3 hours after carrageenan, read-out: depressant rate of edema rate induced by carrageenan (oral administration), ED50)
66%	78%	12%	–	–	CS(=O)(=O)c1ccc(-c2oc3ccc(F)cc3c(=O)c2-c2cccnc2)cc1 [Example 34, 6-Fluoro-2-(4-(methylsulfonyl)phenyl)-3-(3-pyridinyl)-4H-1-benzopyran-4-one]	23%	–	–	–	–
76%	88%	< 5%	47%	204 to 206 °C	CS(=O)(=O)c1ccc(-c2oc3ccccc3c(=S)c2-c2ccccc2)cc1 [Example 37, 2-(4-(Methylsulfonyl)phenyl)-3-phenyl-4H-1-benzopyran-4-thione]	–	16%	–	–	–
89%	–	< 5%	46%	164 to 165 °C	CS(=O)(=O)c1ccc(-c2oc3ccccc3c(=O)c2-c2ccc(Cl)c(Cl)c2)cc1 [Example 11, 3-(3,4-Dichlorophenyl)-2-(4-(methylsulfonyl)phenyl)-4H-1-benzopyran-4-one]	–	17%	–	–	–
83%	90%	13%	–	220 to 221 °C	CS(=O)(=O)c1ccc(-c2oc3ccccc3c(=O)c2-c2cccnc2)cc1 [Example 15, 2-(4-(Methylsulfonyl)phenyl)-3-(3-pyridinyl)-4H-1-benzopyran-4-one]	–	41%	–	–	–
80%	100%	< 5%	56%	–	CS(=O)(=O)c1ccc(-c2oc3ccccc3c(=S)c2-c2ccc(F)cc2)cc1 [Example 36, 3-(4-Fluorophenyl)-2-(4-(methylsulfonyl)phenyl)-4H-1-benzopyran-4-thione]	–	20%	1.0 mg/ear, ED50	–	–
